Paper PMC4503722, “Novel Phenotypic Outcomes Identified for a Public Collection of Approved Drugs from a Publicly Accessible Panel of Assays” (PLoS ONE, 2015)
Read-outs that look alike come from different tables or passages of the source.

Columns and labels:
[1] = tested on: INS-1E cells; assay: cells; type: cell-based, rat
[2] = tested on: tonic K+ channel activity in INS-1E cells; assay: cells; type: cell-based, rat; conditions: for 0.1mMGluc_INS1E FluxOR IC50/EC50: assay number 10; for IC50: Rattus norvegicus, INS-1E, read-out: K+ channel assay IC50
[3] = tested on: INS-1E cells; type: cell-based, rat; conditions: assay number 9; 0.1 mM glucose;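 on 5mMGluc INS1E SecretionMod IC50/EC50: secreted insulin quantified by homogeneous immunoassay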
[4] = target: T1, hFLT3 (Homo sapiens, UniProt P36888); assay: Cerep LANCE kinase assay hFLT3 (S1 assay 35); type: biochemical; conditions: assay number 35
T1 construct: purchased Cerep (LANCE kinase assay platform, contract assay)

[5] = target: T2, hGSK3b (Homo sapiens, UniProt P49841); assay: Cerep LANCE kinase assay hGSK3b (S1 assay 34); type: biochemical; conditions: assay number 34
T2 construct: purchased Cerep (LANCE kinase assay platform, contract assay)

[6] = target: T3, hp70S6K1 (RPS6KB1) (Homo sapiens, UniProt P23443); assay: Cerep LANCE kinase assay hp70S6K1 (S1 assay 31); type: biochemical; conditions: assay number 31
T3 construct: purchased Cerep (LANCE kinase assay platform, contract assay)

[7] = target: T4, hKDR (Homo sapiens, UniProt P35968); assay: Cerep LANCE kinase assay hKDR (S1 assay 32); type: biochemical; conditions: assay number 32
T4 construct: purchased Cerep (LANCE kinase assay platform, contract assay)

[8] = tested on: alkaline phosphatase (ALP) activity in C2C12 cells; type: cell-based; conditions: assay number 6; concentration response
[9] = target: T5, hJAK2 (Homo sapiens, UniProt O60674); assay: Cerep LANCE kinase assay hJAK2 (S1 assay 33); type: biochemical; conditions: assay number 33
T5 construct: purchased Cerep (LANCE kinase assay platform, contract assay)

[10] = tested on: nuclear β-catenin in C2C12 cells; assay: cells; type: cell-based; conditions: for EC50: Mus musculus
[11] = tested on: HeLa cells; assay: cells; type: cell-based; conditions: for EC50: Homo sapiens, HeLa, read-out: CellCycle G2/M
[12] = tested on: HCT116 cells treated with a GSK3β inhibitor; assay: cells; type: cell-based; conditions: Homo sapiens
[13] = tested on: DLD-1; assay: cells; type: cell-based; conditions: Homo sapiens
[14] = tested on: SW480; assay: cells; type: cell-based; conditions: Homo sapiens
[15] = tested on: NCI-H716 cells; assay: cells; type: cell-based, Human
[16] = tested on: endothelial tube formation in co-cultures of ECFCs and ADSCs treated with VEGF; assay: cells; type: cell-based, human; conditions: Homo sapiens, read-out: Anti-Angio IC50
[17] = tested on: HCT116; assay: cells; type: cell-based; conditions: Homo sapiens
[18] = HCT-116, 72 h, read-out: HCT-116 (GSK3β) viab. IC50
[19] = DLD-1, 72 h, read-out: DLD-1 viab. IC50
[20] = Rattus norvegicus, INS-1E, read-out: Ins. sec. EC50
[21] = Rattus norvegicus, INS-1E, read-out: Insulin Secretion
[22] = SW480, 72 h, read-out: SW480 viab. IC50
[23] = SW480, read-out: Basal_Viability ATP SW480
[24] = Homo sapiens, NCI-H716, read-out: GLP1 sec. EC50
[25] = HCT-116, 72 h, read-out: HCT-116 viab. IC50
[26] = HCT-116, read-out: HCT-116 (GSK3β) viab. IC50, Table 2, GSK3β inhibitor LY2090314 20 nM, 72 h, Cell TiterGlo, 20 coded
[27] = DLD-1, 72 h, Table 2, 72 h, Cell TiterGlo, non-adherent, 20 coded, read-out: DLD-1 viab. IC50
[28] = Rattus norvegicus, INS-1E; read-out: Ins. sec. EC50
[29] = SW480, 72 h, Table 2, 72 h, Cell TiterGlo, non-adherent, 20 coded, read-out: SW480 viab. IC50
[30] = C2C12, Table 2, C2C12, […], 20 / 20.1 coded, read-out: Wnt pot. EC50
[31] = Table 2, primary assay tube area, 20 = no response in concentration-response, 20.1 = inactive in single concentration testing
[32] = HCT-116, 72 h, read-out: HCT-116 viab. IC50, Table 2, basal, 72 h, Cell TiterGlo, non-adherent, 20 coded

T2 sequence (P49841 whole entry): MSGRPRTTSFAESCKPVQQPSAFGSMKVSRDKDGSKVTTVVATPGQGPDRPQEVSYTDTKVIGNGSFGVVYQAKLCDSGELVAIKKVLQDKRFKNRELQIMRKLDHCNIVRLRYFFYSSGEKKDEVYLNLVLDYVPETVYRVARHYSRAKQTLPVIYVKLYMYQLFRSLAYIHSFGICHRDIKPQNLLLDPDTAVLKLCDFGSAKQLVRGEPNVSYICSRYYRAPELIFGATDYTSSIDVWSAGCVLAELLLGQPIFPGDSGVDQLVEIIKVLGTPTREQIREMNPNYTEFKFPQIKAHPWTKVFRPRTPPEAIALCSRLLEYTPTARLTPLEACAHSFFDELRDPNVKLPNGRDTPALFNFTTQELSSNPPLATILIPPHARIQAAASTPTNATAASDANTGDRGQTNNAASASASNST
T1 sequence (P36888 27-993): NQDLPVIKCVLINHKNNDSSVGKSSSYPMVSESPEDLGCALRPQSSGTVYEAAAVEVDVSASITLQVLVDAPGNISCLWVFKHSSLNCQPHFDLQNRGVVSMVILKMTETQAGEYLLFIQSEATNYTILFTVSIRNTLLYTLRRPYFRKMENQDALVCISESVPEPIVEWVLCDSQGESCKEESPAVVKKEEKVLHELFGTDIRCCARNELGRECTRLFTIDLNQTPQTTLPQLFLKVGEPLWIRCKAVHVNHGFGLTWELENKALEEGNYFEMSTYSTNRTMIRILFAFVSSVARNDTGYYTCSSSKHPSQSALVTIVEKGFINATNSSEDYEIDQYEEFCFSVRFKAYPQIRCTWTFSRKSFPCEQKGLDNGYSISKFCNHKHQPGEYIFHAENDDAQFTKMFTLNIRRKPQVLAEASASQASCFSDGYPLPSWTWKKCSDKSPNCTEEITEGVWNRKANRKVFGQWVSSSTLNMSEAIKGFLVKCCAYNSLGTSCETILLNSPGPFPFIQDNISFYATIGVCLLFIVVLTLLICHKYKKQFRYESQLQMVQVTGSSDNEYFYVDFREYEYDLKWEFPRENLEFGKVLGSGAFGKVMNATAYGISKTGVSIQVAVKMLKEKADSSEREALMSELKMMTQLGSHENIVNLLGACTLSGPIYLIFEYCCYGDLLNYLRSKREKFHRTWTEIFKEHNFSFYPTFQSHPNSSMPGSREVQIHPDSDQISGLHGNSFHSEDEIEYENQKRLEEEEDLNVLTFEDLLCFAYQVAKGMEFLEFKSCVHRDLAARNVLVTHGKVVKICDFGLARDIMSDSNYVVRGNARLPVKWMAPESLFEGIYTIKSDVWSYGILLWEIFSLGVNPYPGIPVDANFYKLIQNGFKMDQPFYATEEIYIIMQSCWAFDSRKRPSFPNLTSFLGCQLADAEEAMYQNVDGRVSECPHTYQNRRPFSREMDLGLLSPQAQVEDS
T3 sequence (P23443 whole entry): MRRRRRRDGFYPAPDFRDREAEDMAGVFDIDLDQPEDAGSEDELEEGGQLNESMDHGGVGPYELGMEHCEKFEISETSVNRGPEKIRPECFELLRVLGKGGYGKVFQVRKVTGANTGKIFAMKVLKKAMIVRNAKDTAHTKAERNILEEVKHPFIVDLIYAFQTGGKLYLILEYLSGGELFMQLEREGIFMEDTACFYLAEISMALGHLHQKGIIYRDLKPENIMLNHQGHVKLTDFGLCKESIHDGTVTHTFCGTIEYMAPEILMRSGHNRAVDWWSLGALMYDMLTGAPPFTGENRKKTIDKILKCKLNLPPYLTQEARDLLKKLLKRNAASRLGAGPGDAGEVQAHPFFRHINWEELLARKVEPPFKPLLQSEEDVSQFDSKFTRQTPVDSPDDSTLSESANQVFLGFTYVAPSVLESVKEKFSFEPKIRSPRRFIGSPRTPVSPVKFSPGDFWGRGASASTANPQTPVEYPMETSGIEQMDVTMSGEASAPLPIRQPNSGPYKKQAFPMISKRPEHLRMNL
T4 sequence (P35968 20-1356): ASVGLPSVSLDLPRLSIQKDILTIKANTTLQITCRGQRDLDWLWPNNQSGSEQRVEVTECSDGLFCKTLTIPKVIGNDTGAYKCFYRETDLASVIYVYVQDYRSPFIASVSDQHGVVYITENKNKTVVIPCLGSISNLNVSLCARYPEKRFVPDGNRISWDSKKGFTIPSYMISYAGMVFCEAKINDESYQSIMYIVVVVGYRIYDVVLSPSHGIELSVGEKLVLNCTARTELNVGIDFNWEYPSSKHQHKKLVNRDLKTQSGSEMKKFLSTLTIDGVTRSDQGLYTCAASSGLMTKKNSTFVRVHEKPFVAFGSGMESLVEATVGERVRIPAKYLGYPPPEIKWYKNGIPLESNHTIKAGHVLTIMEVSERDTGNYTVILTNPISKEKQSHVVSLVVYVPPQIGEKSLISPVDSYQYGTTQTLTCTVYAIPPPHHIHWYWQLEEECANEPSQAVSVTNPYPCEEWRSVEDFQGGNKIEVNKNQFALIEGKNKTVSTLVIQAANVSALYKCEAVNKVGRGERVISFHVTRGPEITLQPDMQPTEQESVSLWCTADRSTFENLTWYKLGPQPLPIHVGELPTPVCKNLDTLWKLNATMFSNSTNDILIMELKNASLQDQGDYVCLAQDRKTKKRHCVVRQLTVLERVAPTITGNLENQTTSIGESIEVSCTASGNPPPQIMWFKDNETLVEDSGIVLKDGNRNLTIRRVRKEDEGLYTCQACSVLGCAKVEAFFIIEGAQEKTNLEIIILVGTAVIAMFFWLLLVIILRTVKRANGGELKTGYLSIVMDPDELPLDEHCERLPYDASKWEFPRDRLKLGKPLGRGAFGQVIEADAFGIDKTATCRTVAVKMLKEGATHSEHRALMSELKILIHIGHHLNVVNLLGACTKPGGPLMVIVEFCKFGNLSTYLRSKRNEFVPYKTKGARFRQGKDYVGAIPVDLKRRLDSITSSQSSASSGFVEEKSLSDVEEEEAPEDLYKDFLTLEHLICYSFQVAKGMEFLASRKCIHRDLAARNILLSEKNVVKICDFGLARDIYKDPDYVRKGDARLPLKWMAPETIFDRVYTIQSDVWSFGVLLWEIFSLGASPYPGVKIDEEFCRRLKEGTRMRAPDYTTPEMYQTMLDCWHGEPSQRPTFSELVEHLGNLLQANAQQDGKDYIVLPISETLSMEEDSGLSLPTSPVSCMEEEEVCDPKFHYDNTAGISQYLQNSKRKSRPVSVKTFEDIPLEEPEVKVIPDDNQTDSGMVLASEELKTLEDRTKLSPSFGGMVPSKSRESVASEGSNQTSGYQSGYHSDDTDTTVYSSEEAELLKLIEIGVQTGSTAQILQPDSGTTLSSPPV
T5 sequence (O60674 whole entry): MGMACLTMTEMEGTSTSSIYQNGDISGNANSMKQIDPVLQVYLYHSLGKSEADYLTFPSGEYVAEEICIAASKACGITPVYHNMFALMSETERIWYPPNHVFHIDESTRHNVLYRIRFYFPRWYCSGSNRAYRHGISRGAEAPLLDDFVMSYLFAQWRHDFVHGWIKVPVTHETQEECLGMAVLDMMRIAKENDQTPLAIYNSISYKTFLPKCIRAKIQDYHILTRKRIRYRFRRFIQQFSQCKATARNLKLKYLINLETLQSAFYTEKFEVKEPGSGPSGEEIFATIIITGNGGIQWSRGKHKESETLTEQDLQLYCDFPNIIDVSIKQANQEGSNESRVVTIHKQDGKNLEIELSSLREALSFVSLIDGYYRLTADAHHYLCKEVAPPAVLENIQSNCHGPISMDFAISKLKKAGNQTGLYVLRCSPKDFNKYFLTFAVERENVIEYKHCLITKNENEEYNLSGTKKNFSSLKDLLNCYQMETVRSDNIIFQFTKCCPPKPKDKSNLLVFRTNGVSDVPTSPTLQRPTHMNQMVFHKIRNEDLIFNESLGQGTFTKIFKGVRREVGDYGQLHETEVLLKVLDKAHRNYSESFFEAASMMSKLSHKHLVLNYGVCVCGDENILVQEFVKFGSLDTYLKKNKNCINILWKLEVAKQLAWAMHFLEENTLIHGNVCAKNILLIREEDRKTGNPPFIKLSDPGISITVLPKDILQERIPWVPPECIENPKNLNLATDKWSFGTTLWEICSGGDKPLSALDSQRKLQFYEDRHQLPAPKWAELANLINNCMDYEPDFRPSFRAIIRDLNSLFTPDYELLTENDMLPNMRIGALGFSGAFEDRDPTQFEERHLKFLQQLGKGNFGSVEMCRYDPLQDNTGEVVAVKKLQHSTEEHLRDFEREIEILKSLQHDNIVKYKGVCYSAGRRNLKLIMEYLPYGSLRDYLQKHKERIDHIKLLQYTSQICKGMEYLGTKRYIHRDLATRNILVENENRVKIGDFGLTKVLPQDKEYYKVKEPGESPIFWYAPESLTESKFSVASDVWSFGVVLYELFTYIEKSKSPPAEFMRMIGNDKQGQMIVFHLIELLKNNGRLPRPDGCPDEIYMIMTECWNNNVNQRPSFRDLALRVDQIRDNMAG

Question: How did the “5mMGluc_INS1E SecretionMod IC50/EC50” value ([1]; assay number 8; 5 mM glucose) turn out when `CN(C)C/C=C(/c1ccc(Br)cc1)c1cccnc1.Cl.Cl.O` [NCGC00025286-04] was run?
Answer: 8.361 µM

Question: And the “0.1mMGluc_INS1E FluxOR IC50/EC50” value ([2]; 0.1 mM glucose)?
Answer: 27.874 µM

Question: And the “0.1mMGluc_INS1E SecretionMod Act IC50/EC50” value [3]?
Answer: > 33.33 µM

Question: With `Nc1ccc2cc3ccc(N)cc3nc2c1` [NCGC00166245-04] as the molecule, how does the “hFLT3 LANCE IC50/EC50” value [4] read?
Answer: > 20 µM

Question: What about the “hGSK3b LANCE IC50/EC50” value [5] of the same molecule?
Answer: > 20 µM

Question: And the “hp70S6K1 LANCE IC50/EC50” value [6]?
Answer: > 20 µM

Question: What about the “hKDR LANCE IC50/EC50” value [7] of the same molecule?
Answer: > 20 µM

Question: What about the “WntCondMedia_Alk Phos C2C12 IC50/EC50” value [8] of the same molecule?
Answer: > 20 µM

Question: And the “5mMGluc_INS1E SecretionMod IC50/EC50” value ([1]; assay number 8; 5 mM glucose)?
Answer: 20.6221 µM

Question: And the “hJAK2 LANCE IC50/EC50” value [9]?
Answer: > 20 µM

Question: What about the “WntCondMedia_bCatenin C2C12 IC50/EC50” value ([10]; assay number 5, concentration response) of the same molecule?
Answer: 5.9868 µM

Question: And the “Hela CellCycMod PI 2N IC50/EC50” value ([11]; assay number 14, 2N)?
Answer: > 10 µM

Question: What about the “Hela CellCycMod PI S Phase IC50/EC50” value ([11]; assay number 15, S phase) of the same molecule?
Answer: 3.4397 µM

Question: And the “Hela CellCycMod PI 4N IC50/EC50” value ([11]; assay number 16, 4N)?
Answer: > 10 µM

Question: What about the “Hela CellCycMod PI MI IC50/EC50” value ([11]; assay number 17, MI) of the same molecule?
Answer: 2.4689 µM

Question: And the “Hela CellCycMod PI Cell Number IC50/EC50” value ([11]; assay number 18, cell number)?
Answer: 1.3426 µM

Question: And the “0.1mMGluc_INS1E SecretionMod Act IC50/EC50” value [3]?
Answer: > 33.33 µM

Question: How did the “5mMGluc_INS1E SecretionMod IC50/EC50” value ([1]; assay number 8; 5 mM glucose) turn out when `CCN(CC)CCCN(c1ccccc1)C1Cc2ccccc2C1.Cl` [NCGC00167576-02] was run?
Answer: 7.1279 µM

Question: What about the “0.1mMGluc_INS1E FluxOR IC50/EC50” value ([2]; 0.1 mM glucose) of the same molecule?
Answer: 14.9742 µM

Question: And the “0.1mMGluc_INS1E SecretionMod Act IC50/EC50” value [3]?
Answer: > 33.33 µM

Question: Which “5mMGluc_INS1E SecretionMod IC50/EC50” value ([1]; assay number 8; 5 mM glucose) does the source give for `CC(C)C1CCC(C(=O)N[C@H](Cc2ccccc2)C(=O)O)CC1` (some centres unmarked) [NCGC00178741-03] here?
Answer: 7.074 µM

Question: What about the “0.1mMGluc_INS1E FluxOR IC50/EC50” value ([2]; 0.1 mM glucose) of the same molecule?
Answer: 0.2515 µM

Question: What about the “0.1mMGluc_INS1E SecretionMod Act IC50/EC50” value [3] of the same molecule?
Answer: > 33.33 µM

Question: Which “5mMGluc_INS1E SecretionMod IC50/EC50” value ([1]; assay number 8; 5 mM glucose) does the source give for `CC1CC(=O)NN=C1c1ccc(NCC(C)(C)NCC(O)COc2cc(Cl)ccc2C#N)cc1` (centres unmarked) [NCGC00249416-01] here?
Answer: 15.1547 µM

Question: And the “0.1mMGluc_INS1E FluxOR IC50/EC50” value ([2]; 0.1 mM glucose)?
Answer: 84.8421 µM

Question: What about the “0.1mMGluc_INS1E SecretionMod Act IC50/EC50” value [3] of the same molecule?
Answer: > 33.33 µM

Question: `CN(C)CCC=C1c2ccccc2CCc2ccccc21` [amitriptyline, reference compound] was tested. Which IC50 [12, 18] did it give?
Answer: > 20 µM

Question: And the IC50 [13, 19]?
Answer: > 20 µM

Question: What about the EC50 [1, 20] of the same molecule?
Answer: 3 µM

Question: And the EC50 [1, 21]?
Answer: 3 µM

Question: And the IC50 [14, 22]?
Answer: 10.1 µM

Question: And the IC50 [14, 23]?
Answer: 10.1 µM

Question: And the EC50 [15, 24]?
Answer: > 10 µM

Question: What about the IC50 [2] of the same molecule?
Answer: 6.2 µM

Question: And the EC50 ([10]; C2C12, read-out: Wnt pot. EC50)?
Answer: > 10 µM

Question: What about the IC50 [16] of the same molecule?
Answer: > 10 µM

Question: What about the IC50 [17, 25] of the same molecule?
Answer: > 20 µM

Question: What about the EC50 [11] of the same molecule?
Answer: > 10 µM

Question: Which results are given for `CC(CC1c2ccccc2CCc2ccccc21)CN(C)C` (centres unmarked) [butriptyline, reference compound]?
Answer: IC50 [12, 18]: > 20 µM; IC50 [13, 19]: 8.1 µM; IC50 ([13]; DLD-1, read-out: Basal_Viability ATP DLD-1): 8.1 µM; EC50 [1, 20]: 3.6 µM; EC50 [1, 21]: 3.64 µM; IC50 [14, 22]: 7.8 µM; IC50 [14, 23]: 7.84 µM; EC50 [15, 24]: > 10 µM; IC50 [2]: > 20 µM; EC50 ([10]; C2C12, read-out: Wnt pot. EC50): > 10 µM; IC50 [16]: > 10 µM; IC50 [17, 25]: 6.2 µM; IC50 ([17]; HCT-116, read-out: Basal_Viability ATP HCT116): 6.21 µM; EC50 [11]: > 10 µM

Question: Which IC50 [12, 26] does the source give for `CCN(CC)CCOc1ccccc1C(=O)CCc1ccccc1` [etafenone, reference compound] here?
Answer: > 20 µM

Question: What about the IC50 [13, 27] of the same molecule?
Answer: > 20 µM

Question: What about the EC50 [1, 28] of the same molecule?
Answer: 3.9 µM

Question: What about the EC50 ([1]; Rattus norvegicus, INS-1E; read-out: Insulin Secretion) of the same molecule?
Answer: 3.89 µM

Question: And the IC50 [14, 29]?
Answer: 16.9 µM

Question: What about the IC50 ([14]; SW480, basal, SW480, read-out: Basal_Viability ATP SW480) of the same molecule?
Answer: 16.9 µM

Question: What about the IC50 ([2]; 0.1 mM glucose, thallium flux) of the same molecule?
Answer: 6.7 µM

Question: And the EC50 [10, 30]?
Answer: > 10 µM

Question: What about the IC50 [16, 31] of the same molecule?
Answer: > 10 µM

Question: What about the IC50 [17, 32] of the same molecule?
Answer: 11.2 µM

Question: What about the IC50 ([17]; HCT-116, basal, HCT116, read-out: Basal_Viability ATP HCT116) of the same molecule?
Answer: 11.2 µM

Question: What about the “G2/M IC50 / EC50” value [11] of the same molecule?
Answer: 20 (values shown as 20 indicate that the compound was tested in concentration-response and showed no response at the highest concentration tested (e.g. IC50 > 20 μM))

Question: What about the EC50 ([11]; S2 Table, 20 = no response at highest concentration) of the same molecule?
Answer: > 10 µM

Question: How did the IC50 [12, 26] turn out when `CCN(CCCCOC(=O)c1ccc(OC)c(OC)c1)C(C)Cc1ccc(OC)cc1` (centres unmarked) [mebeverine, reference compound] was run?
Answer: > 20 µM

Question: And the IC50 [13, 27]?
Answer: > 20 µM

Question: And the EC50 [1, 28]?
Answer: 2 µM

Question: What about the EC50 ([1]; Rattus norvegicus; IC50 / EC50; INS-1E; read-out: Insulin Secretion) of the same molecule?
Answer: 1.95 µM

Question: And the IC50 [14, 29]?
Answer: > 20 µM

Question: What about the EC50 ([15]; Homo sapiens, NCI-H716; read-out: GLP1 sec. EC50) of the same molecule?
Answer: > 10 µM

Question: And the IC50 ([2]; 0.1 mM glucose, thallium flux)?
Answer: 1.7 µM

Question: And the EC50 [10, 30]?
Answer: > 10 µM

Question: And the IC50 [16, 31]?
Answer: > 10 µM

Question: And the IC50 [17, 32]?
Answer: > 20 µM

Question: And the “G2/M IC50 / EC50” value [11]?
Answer: 20 (values shown as 20 indicate that the compound was tested in concentration-response and showed no response at the highest concentration tested (e.g. IC50 > 20 μM))

Question: What about the EC50 ([11]; IC50 / EC50) of the same molecule?
Answer: > 10 µM
